Measured values from ChEMBL document CHEMBL4261654, “Synthesis and in vitro antitumor activity of novel alkenyl derivatives of pyridoxine, bioisosteric analogs of feruloyl methane” (Bioorg Med Chem, 2018).
Values belong to the molecule of their own block, whether it stands above or below them. Active and inactive are the calls of the source. The rule behind the calls is not given here.

Key:
HEK293 = test: Antiproliferative activity against human HEK293 cells after 72 hrs by MTT assay; type: cell-based; conditions: HEK293, 72 h
[1] = Antiproliferative activity against HSF cells after 72 hrs by MTT assay; type: cell-based; conditions: Homo sapiens
PC-3 [2] = test: Antiproliferative activity against human PC3 cells after 72 hrs by MTT assay; type: functional, cell-based; conditions: PC-3, 72 h
A498 [3] = test: Antiproliferative activity against human A498 cells after 72 hrs by MTT assay; type: functional, cell-based; conditions: A498, 72 h
SNB-19 [4] = test: Antiproliferative activity against human SNB19 cells after 72 hrs by MTT assay; type: functional, cell-based; conditions: SNB-19, 72 h
M14 [5] = test: Antiproliferative activity against human M14 cells after 72 hrs by MTT assay; type: functional, cell-based; conditions: M14, 72 h
OVCAR-4 [6] = test: Antiproliferative activity against human OVCAR4 cells after 72 hrs by MTT assay; type: functional, cell-based; conditions: OVCAR-4, 72 h
NCI-H322M [7] = test: Antiproliferative activity against human NCI-H322M cells after 72 hrs by MTT assay; type: functional, cell-based
HCT-15 [8] = test: Antiproliferative activity against human HCT15 cells after 72 hrs by MTT assay; type: functional, cell-based; conditions: HCT-15, 72 h
HCT-116 [9] = test: Antiproliferative activity against human HCT116 cells after 72 hrs by MTT assay; type: functional, cell-based; conditions: HCT-116, 72 h
MDA-MB-231 [10] = test: Antiproliferative activity against human MDA-MB-231 cells after 72 hrs by MTT assay; type: functional, cell-based; conditions: MDA-MB-231, 72 h
MCF7 [11] = test: Antiproliferative activity against human MCF7 cells after 72 hrs by MTT assay; type: functional, cell-based; conditions: MCF7, 72 h
[12] = Selectivity index, ratio of IC50 for HSF cells to IC50 for human MCF7 cells; type: toxicity; conditions: HSF cells versus MCF7 cells, read-out: Ratio IC50
[13] = Ratio of compound IC50 to dehydrozingerone IC50 for antiproliferative activity against HSF cells; type: cell-based; conditions: human, read-out: Ratio IC50
MCF7 [14] = test: Potency index, ratio of compound IC50 to dehydrozingerone IC50 for antiproliferative activity against human MCF7 cells; type: functional
PC-3 [15] = test: Potency index, ratio of compound IC50 to dehydrozingerone IC50 for antiproliferative activity against human PC3 cells; type: functional
A498 [16] = test: Potency index, ratio of compound IC50 to dehydrozingerone IC50 for antiproliferative activity against human A498 cells; type: functional
SNB-19 [17] = test: Potency index, ratio of compound IC50 to dehydrozingerone IC50 for antiproliferative activity against human SNB19 cells; type: functional
M14 [18] = test: Potency index, ratio of compound IC50 to dehydrozingerone IC50 for antiproliferative activity against human M14 cells; type: functional
OVCAR-4 [19] = test: Potency index, ratio of compound IC50 to dehydrozingerone IC50 for antiproliferative activity against human OVCAR4 cells; type: functional
NCI-H322M [20] = test: Potency index, ratio of compound IC50 to dehydrozingerone IC50 for antiproliferative activity against human NCI-H322M cells; type: functional
HCT-15 [21] = test: Potency index, ratio of compound IC50 to dehydrozingerone IC50 for antiproliferative activity against human HCT15 cells; type: functional
HCT-116 [22] = test: Potency index, ratio of compound IC50 to dehydrozingerone IC50 for antiproliferative activity against human HCT116 cells; type: functional
MDA-MB-231 [23] = test: Potency index, ratio of compound IC50 to dehydrozingerone IC50 for antiproliferative activity against human MDA-MB-231 cells; type: functional
[24] = Antioxidant activity assessed as ferric ion reducing activity at 20 to 320 umol after 20 mins by FRAP assay; type: functional

Structure (SMILES): COc1cccc2c1C(=O)c1c(O)c3c(c(O)c1C2=O)C[C@@](O)(C(=O)CO)C[C@@H]3O[C@H]1C[C@H](N)[C@H](O)[C@H](C)O1 [DOXORUBICIN]
- IC50 (HEK293): 1.2 µM
- IC50 [1]: 2.2 µM
- IC50 (PC-3 [2]): 0.23 µM
- IC50 (A498 [3]): 6.1 µM
- IC50 (SNB-19 [4]): 0.15 µM
- IC50 (M14 [5]): 3.4 µM
- IC50 (OVCAR-4 [6]): 0.15 µM
- IC50 (NCI-H322M [7]): 29 µM
- IC50 (HCT-15 [8]): 2.2 µM
- IC50 (HCT-116 [9]): 0.4 µM
- IC50 (MDA-MB-231 [10]): 0.3 µM

Structure (SMILES): CC(=O)/C=C/c1nc(C)c(O)c2c1COC(C)(C)OC2
- IC50 (MCF7 [11]): 27 µM
- IC50 (HEK293): 38 µM

Structure (SMILES): CC(=O)/C=C/c1cnc(C)c2c1COC1(CCCC1)O2
- IC50 (MCF7 [11]): 7.2 µM
- IC50 (HEK293): 17 µM

Structure (SMILES): CC(=O)/C=C/c1cnc(C)c(O)c1CO
- IC50 (MCF7 [11]): 398 µM
- IC50 (HEK293): 121 µM

Further lines, with some results ahead:

- IC50 (MCF7 [11]): 3.9 µM
- IC50 (PC-3 [2]): 8.8 µM
- IC50 (OVCAR-4 [6]): 23.6 µM
- IC50 (NCI-H322M [7]): 10.6 µM
- IC50 (HCT-15 [8]): 2.1 µM
- IC50 (HCT-116 [9]): 4.1 µM
- IC50 (MDA-MB-231 [10]): 3.1 µM
Structure (SMILES): CCC1OCc2c(/C=C/C(C)=O)cnc(C)c2O1 (stereo not drawn)
- IC50 (HEK293): 36 µM
- IC50 [1]: 18.9 µM
- IC50 (A498 [3]): 17 µM
- IC50 (SNB-19 [4]): 6.7 µM
- IC50 (M14 [5]): 9.7 µM
- selectivity ratio [12]: 4.8
- selectivity ratio [13]: 7 to 211
- Ratio IC50 (MCF7 [14]): 7 - 211
- Ratio IC50 (PC-3 [15]): 7 - 211
- Ratio IC50 (A498 [16]): 7 - 211
- Ratio IC50 (SNB-19 [17]): 7 - 211
- Ratio IC50 (M14 [18]): 7 - 211
- Ratio IC50 (OVCAR-4 [19]): 7 - 211
- Ratio IC50 (NCI-H322M [20]): 7 - 211
- Ratio IC50 (HCT-15 [21]): 7 - 211
- Ratio IC50 (HCT-116 [22]): 7 - 211
- Ratio IC50 (MDA-MB-231 [23]): 7 - 211
- Activity [24]: inactive

- IC50 (MCF7 [11]): 1.3 µM
Structure (SMILES): CCCCC1OCc2c(/C=C/C(C)=O)cnc(C)c2O1 (stereo not drawn)
- IC50 (HEK293): 13 µM

- IC50 (MCF7 [11]): 2.2 µM
Structure (SMILES): CCCC1OCc2c(/C=C/C(C)=O)cnc(C)c2O1 (stereo not drawn)
- IC50 (HEK293): 2.9 µM

- IC50 (MCF7 [11]): 4.6 µM
Structure (SMILES): CCCC1OCc2c(/C=C/C(C)=O)nc(C)c(O)c2CO1 (stereo not drawn)
- IC50 (HEK293): 13 µM
